Data on 1 molecule can be found in patent US9724347B2, “1-pyrazolyl-3-(4-((2-anilinopyrimidin-4-yl)oxy)napththalen-1-yl) ureas as P38 MAP knase inhibitors” (Respivert Ltd., priority 2011, dated 2017).

Data set [1] relates to ICAM-1 expression in BEAS2B cells. The data set can be described thus: Poly I:C-induced ICAM-1 expression in BEAS2B cells. The data set is classed as cell-based, human. The following applies: read-out: PolyIC/ICAM1 IC50 (BEAS2B). A digest of the protocol:
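BEAS2B human bronchial epithelial cells pre-incubated 2 h with compound, then transfected with 1 μg/mL poly I:C plus Oligofectamine. After 18 h, surface ICAM-1 measured by cell-based ELISA (OD450–655), normalised to crystal violet cell count (OD595). Inhibition calculated against vehicle control.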

The subject of data set [2] is TNFα release in THP-1 cells. The data set can be described thus: LPS-induced TNFα release in THP-1 cells. The format is cell-based, human. The following applies: THP1 cells. As for the experimental part: THP-1 cells, a human monocytic cell line, were stimulated with 3 μg/mL of LPS (from E. Coli; 0111:B4, Sigma) for 4 hr and the supernatant collected for determination of the TNFα concentration by sandwich ELISA (Duo-set, R&D systems). The inhibition of TNFα production was calculated at each concentration by comparison with vehicle control.

The subject of data set [3] is IL-8 release in d-U937 cells. The data set can be described thus: LPS-induced IL-8 release in d-U937 cells. The data set is classed as cell-based, human. The following applies: dU937 cells. As for the experimental part:
U937 cells, a human monocytic cell line, were differentiated into macrophage-type cells by incubation with PMA (100 ng/mL) for 48 to 72 hr. […] The supernatant was collected for determination of TNFα and IL-8 concentrations by sandwich ELISA (Duo-set, R&D systems). […] The relative 50% effective concentration (REC50) was determined from the resultant concentration-response curve. The inhibition of IL-8 production was calculated at each concentration of test compound by comparison with vehicle control.

The test system of the next data set is d-U937 cells. The data set can be described thus: Cell viability: MTT assay. The data set is classed as cell-based, human. Conditions: 1 μg/mL. In outline:
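Differentiated U937 cells exposed to compound at 1 or 10 μg/mL final, either 4 h in 5% FCS RPMI1640 or 24 h in 10% FCS RPMI1640. After medium replacement, MTT added 1 h, formazan dissolved in DMSO, A550 read. % viability loss vs 0.5% DMSO vehicle; apparent viability gain shown as negative %.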

The next data set concerns HRV16. The data set can be described thus: HRV16 induced CPE in MRC5 cells. The following applies: at 0.04 μg/mL. The format is cell-based, human rhinovirus. As for the experimental part:
The supernatants were aspirated, and then fresh media added followed by incubation for 4 days. Where appropriate, cells were pre-incubated with compound or DMSO for 2 hr, and the compounds and DMSO added again after washout of the virus.
The percentage inhibition for each well was calculated. The IC50 value was calculated from the concentration-response curve generated by the serial dilutions of the test compounds.

Data set [4] relates to HRV IL-8 release (BEAS2B). The data set can be described thus: Rhinovirus-induced IL-8 release in BEAS2B cells. The data set is classed as cell-based, human. The following applies: at 0.04 μg/mL. As for the experimental part: Human rhinovirus RV16 was obtained from the American Type Culture Collection (Manassas, Va.). Viral stocks were generated by infecting Hela cells with HRV until 80% of the cells were cytopathic.
BEAS2B cells were infected with HRV at an MOI of 5 and incubated for 2 hr at 33° C. with gentle shaking for to promote absorption. The cells were then washed with PBS, fresh media added and the cells were incubated for a further 72 hr. The supernatant was collected for assay of IL-8 concentrations using a Duoset ELISA development kit (R&D systems, Minneapolis, Minn.).
The level of cell surface ICAM-1 expression was determined by cell-based ELISA. At 72 hr after infection, cells were fixed with 4% formaldehyde in PBS. After quenching endogenous peroxidase by adding 0.1% sodium azide and 1% hydrogen peroxide, wells were washed with wash-buffer (0.05% Tween in PBS: PBS-Tween). […] The ICAM-1 signal was detected by adding substrate and reading at 450 nm with a reference wavelength of 655 nm using a spectrophotometer. The wells were then washed with PBS-Tween and total cell numbers in each well were determined by reading absorbance at 595 nm after Crystal Violet staining and elution by 1% SDS solution. The measured OD450-655 readings were corrected for cell number by dividing with the OD595 reading in each well. […]

In data set [5] the test system is TNFα release in d-U937 cells. The data set can be described thus: LPS-induced TNFα release in d-U937 cells. Conditions: dU937 cells; relative to 10 μg/mL BIRB796; read-out: LPS Induced Release TNFα REC50 (dU937). The format is cell-based, human. As for the experimental part:
U937 cells, a human monocytic cell line, were differentiated into macrophage-type cells by incubation with PMA (100 ng/mL) for 48 to 72 hr. Cells were pre-incubated with final concentrations of test compound for 2 hr and were then stimulated with LPS (0.1 μg/mL; from E. Coli: 0111:B4, Sigma) for 4 hr. The supernatant was collected for determination of TNFα and IL-8 concentrations by sandwich ELISA (Duo-set, R&D systems). […] The relative 50% effective concentration (REC50) was determined from the resultant concentration-response curve. The inhibition of IL-8 production was calculated at each concentration of test compound by comparison with vehicle control.

Regarding `Cc1ccc(-n2nc(C(C)(C)C)cc2NC(=O)Nc2ccc(Oc3ccnc(Nc4ccccc4Cl)n3)c3ccccc23)cc1` [Example 19, 1-(3-(tert-butyl)-1-(p-tolyl)-1H-pyrazol-5-yl)-3-(4-((2-((2-chlorophenyl)amino)pyrimidin-4-yl)oxy)naphthalen-1-yl)urea], the values for the IC50 in data set [1], in data set [2] and in data set [3] were 43 nM, 192 nM and 14 nM, respectively. Besides, the “MTT Assay Cell viability at time point in d-U937 Cells” value with d-U937 cells (4 h) was “−ve (−ve and +ve indicate the value is below and above respectively, the no significant effect threshold defined as 30% inhibition at 1 μg/mL at the time point indicated)”; in the data set with d-U937 cells (24 h), “−ve (−ve and +ve indicate the value is below and above respectively, the no significant effect threshold defined as 30% inhibition at 1 μg/mL at the time point indicated)”. The “HRV CPE (MRC5) % inhibition” value in the data set with HRV16 is recorded as “NE (NE: no effect, ≦0% at 0.04 μg/mL)”. Moreover, the “HRV IL-8 (BEAS2B) % inhibition” value in data set [4] is recorded as 100%. Moreover, in data set [5], the EC50 was 13 nM.
